Reference: ChEMBL document CHEMBL6109105, “Design, synthesis and antibacterial evaluation of oxazolidinone derivatives containing N-methylglycyl or quaternary ammonium salts” (Bioorg Med Chem, 2025)
Converted amounts (≈) assume the structure as drawn. The source made the active and inactive calls. The rule behind the calls is not given here.

Key:
[1] = Hemolytic activity in sheep RBC assessed as hemolysis incubated for 1 hrs by microplate reader analysis; assay type: toxicity, cell-based, Ovis aries, Erythrocyte; conditions: sheep red blood cells
Cell membrane [2] = experiment: Induction of cell membrane damage in Enterococcus faecalis assessed as nucleic acid leakage at 8 times of MIC incubated for 2 hrs by fluorescence spectrophotometric analysis; assay type: subcellular
Enterococcus faecalis [3] = experiment: Post-antibiotic affect in Enterococcus faecalis assessed as reduction in growth rate at 16 times of MIC measured after 1 hrs; assay type: functional, organism-based
[4] = tested on: Stenotrophomonas maltophilia; experiment: Antibacterial activity against Stenotrophomonas maltophilia ATCC 17808 assessed as inhibition of bacterial growth incubated for 16 to 18 hrs by microbroth dilution method; assay type: functional; conditions: time 16-18 hrs, read-out: MIC100
Staphylococcus aureus = experiment: Antibacterial activity against Staphylococcus aureus ATCC 29213 assessed as inhibition of bacterial growth incubated for 16 to 18 hrs by microbroth dilution method; assay type: functional; conditions: time 16-18 hrs, read-out: MIC100
Enterococcus faecalis [5] = experiment: Induction of ROS accumulation in Enterococcus faecalis assessed as increase in fluorescence intensity at 8 times of MIC incubated for 30 mins in presence of NAC by DCFH-DA staining based microplate reader analysis; assay type: functional, organism-based
[6] = Hemolytic activity in sheep RBC assessed as hemolysis at 1280 microg/ml incubated for 1 hrs by microplate reader analysis relative to control; assay type: toxicity, cell-based, Ovis aries, Erythrocyte; conditions: sheep red blood cells, dose 1280 µg/ml, read-out: Activity
Enterococcus faecalis [7] = experiment: Disruption of preformed biofilm in Enterococcus faecalis assessed as reduction in bacterial density at 32 times of MIC measured after 24 hrs by SYTO 9 staining based confocal laser scanning microscopic analysis; assay type: functional, organism-based
Enterococcus faecalis [8] = experiment: Induction of ROS accumulation in Enterococcus faecalis assessed as fluorescence intensity at 8 times of MIC incubated for 30 mins by DCFH-DA staining based microplate reader analysis; assay type: functional; conditions: 0.5 h
Enterococcus faecalis [9] = experiment: Antibacterial activity against Enterococcus faecalis assessed as inhibition of bacterial growth incubated for 16 to 18 hrs in presence of 50% plasma by dilution method; assay type: functional; conditions: time 16-18 hrs
HeLa [10] = experiment: Cytotoxicity against human HeLa cells assessed as increase in red fluorescence at 32 microg/ml incubated for 24 hrs by calcein-AM/PI staining based fluorescence microscopic analysis; assay type: toxicity, cell-based; conditions: dose 32 µg/ml
Enterococcus faecalis [11] = experiment: Antibacterial activity against Enterococcus faecalis assessed as inhibition of bacterial growth incubated for 3 hrs in presence of 50% plasma by dilution method; assay type: functional
[12] = Cytotoxicity against human HeLa cells assessed as cell viability at 64 microg/ml incubated for 24 hrs by CCK8 assay relative to control; assay type: toxicity, cell-based; conditions: at 64 µg/mL, read-out: Activity
Escherichia coli = experiment: Antibacterial activity against Escherichia coli ATCC 25922 assessed as inhibition of bacterial growth incubated for 16 to 18 hrs by microbroth dilution method; assay type: functional; conditions: time 16-18 hrs, read-out: MIC100
Enterococcus faecalis [13] = experiment: Bactericidal activity against Enterococcus faecalis assessed as reduction in bacterial count at 4 times of MIC measured within 10 hrs by time-kill kinetics analysis; assay type: functional
Cell membrane [14] = experiment: Induction of cell membrane damage in Enterococcus faecalis assessed as nucleic acid leakage at 32 times of MIC incubated for 2 hrs by fluorescence spectrophotometric analysis; assay type: subcellular
HeLa [15] = experiment: Cytotoxicity against human HeLa cells assessed as increase in fluorescence intensity at 1 to 16 microg/ml by vesicle leakage assay; assay type: toxicity, cell-based; conditions: dose 1-16 µg/ml
Enterococcus faecalis [16] = experiment: Antibacterial activity against Enterococcus faecalis ATCC 29212 assessed as inhibition of bacterial growth incubated for 16 to 18 hrs by microbroth dilution method; assay type: functional; conditions: time 16-18 hrs, read-out: MIC100
Enterococcus faecalis [17] = experiment: Induction of ROS-dependent oxidative stress in Enterococcus faecalis assessed as decrease in GSH activity at 32 microg/ml (reference value: 1.34 %); assay type: functional; design: scale not given: the % may be the effect or the level left; conditions: dose 32 µg/ml
Enterococcus faecalis [18] = experiment: Antibacterial activity against Enterococcus faecalis assessed as inhibition of bacterial growth incubated for 16 to 18 hrs in presence of 50% serum by dilution method; assay type: functional; conditions: time 16-18 hrs
Enterococcus faecalis [19] = experiment: Antibacterial activity against Enterococcus faecalis assessed as inhibition of bacterial growth at 0.5 times of MIC incubated for 15 days by bacterial resistance development assay; assay type: functional, organism-based; conditions: time 15.0 day
Enterococcus faecalis [20] = experiment: Disruption of preformed biofilm in Enterococcus faecalis assessed as bacterial survival rate at 32 times of MIC measured after 24 hrs relative to control; assay type: functional
Enterococcus faecalis [21] = experiment: Drug resistance, ratio of MIC for Enterococcus faecalis measured after 5 days to MIC for Enterococcus faecalis measured after 16 to 18 hrs; assay type: functional
Enterococcus faecalis [22] = experiment: Disruption of preformed biofilm in Enterococcus faecalis assessed as bacterial survival rate at 16 times of MIC measured after 24 hrs relative to control; assay type: functional
Cell membrane [23] = experiment: Induction of cytoplasmic membrane permeability in Enterococcus faecalis assessed as increase in fluorescence intensity at 8 times of MIC by PI staining based analysis
Enterococcus faecalis [24] = experiment: Post-antibiotic affect in Enterococcus faecalis assessed as reduction in growth rate at 8 times of MIC measured after 1 hrs; assay type: functional, organism-based
Enterococcus faecalis [25] = experiment: Antibacterial activity against Enterococcus faecalis assessed as inhibition of bacterial growth incubated for 16 to 18 hrs in presence of 50% MHB by dilution method; assay type: functional; conditions: time 16-18 hrs
[26] = Selectivity ratio of MIC for antibacterial activity against Enterococcus faecalis assessed as inhibition of bacterial growth measured after 3 hrs in presence of 50% plasma to MIC for antibacterial activity against Enterococcus faecalis assessed as inhibition of bacterial growth assessed as inhibition of bacterial growth measured after 16 to 18 hrs; assay type: functional
Enterococcus faecalis [27] = experiment: Antibacterial activity against Enterococcus faecalis assessed as inhibition of bacterial growth incubated for 3 hrs in presence of 50% MHB by dilution method; assay type: functional, organism-based
Enterococcus faecalis [28] = experiment: Antibacterial activity against Enterococcus faecalis assessed as post-antibiotic effect at 8 times of MIC measured up to 8 hrs; assay type: functional
Enterococcus faecalis [29] = experiment: Antipersister-activity against in Enterococcus faecalis assessed as log reduction in persistent cells at 32 times of MIC preincubated with 100 times of MIC of rifampicin for 24 hrs followed by compound addition and measured after 8 hrs by drop plate counting method; assay type: functional
Enterococcus faecalis [30] = experiment: Antibacterial activity against Enterococcus faecalis assessed as post-antibiotic effect at 16 times of MIC measured up to 8 hrs; assay type: functional
Cell membrane [31] = experiment: Induction of cytoplasmic membrane depolarization in Enterococcus faecalis assessed as increase in fluorescence intensity by DiSC35 dye based microplate reader analysis
Cell membrane [32] = experiment: Induction of cell membrane damage in Enterococcus faecalis assessed as nucleic acid leakage at 16 times of MIC incubated for 2 hrs by fluorescence spectrophotometric analysis; assay type: subcellular

CC(=O)NC[C@H]1CN(c2ccc(N3CCN(C(=O)CN(C)Cc4ccc([N+](=O)[O-])cc4)CC3)c(F)c2)C(=O)O1
HC50 at 1 h [1]: > 1280 µg/mL
Activity (Cell membrane [2]): Active; Small Amount Of Leakage Observed
Activity (Enterococcus faecalis [3]): Active
MIC [4]: > 128 µg/mL
MIC (Staphylococcus aureus): 8 µg/mL (≈ 14.7 µM)
Activity (Enterococcus faecalis [5]): inactive
hemolysis at 1 h, 1280 microg/ml [6]: 3.19%
Activity (Enterococcus faecalis [7]): Active
Flu intensity (Enterococcus faecalis [8]): 280 a.u.
MIC (Enterococcus faecalis [9]): 2 µg/mL
Activity (HeLa [10]): Non-toxic
MIC (Enterococcus faecalis [11]): 8 µg/mL
viability at 24 h, 64 microg/ml [12]: 59.8%
MIC (Escherichia coli): > 128 µg/mL
Activity (Enterococcus faecalis [13]): ~1 10^4CFU/ml
Activity (Cell membrane [14]): Active; Small Amount Of Leakage Observed
Activity (HeLa [15]): Non-toxic
MIC (Enterococcus faecalis [16]): 2 µg/mL (≈ 3.69 µM)
Activity (Enterococcus faecalis [17]): 45.89%
MIC (Enterococcus faecalis [18]): 4 µg/mL
Activity (Enterococcus faecalis [19]): Active
Activity (Enterococcus faecalis [20]): 0.04%
Ratio (Enterococcus faecalis [21]): 2
Activity (Enterococcus faecalis [22]): 0.3%
Activity (Cell membrane [23]): inactive
Activity (Enterococcus faecalis [24]): Active
MIC (Enterococcus faecalis [25]): 2 µg/mL
Selectivity ratio [26]: 4
Activity (Enterococcus faecalis [27]): Active
PAE (Enterococcus faecalis [28]): 0.44 h
Activity (Enterococcus faecalis [29]): 3.71 log10CFU/ml
PAE (Enterococcus faecalis [30]): 5.13 h
Activity (Cell membrane [31]): inactive
Activity (Cell membrane [32]): Active; Small Amount Of Leakage Observed
